System: IFN-β secretion in THP1 cells
Assay: IFN-β secretion in THP1 cell culture (5 h)
Type: cell-based, human
Details: not given
Description: The ability of compounds to stimulate the secretion of interferon-beta from THP1 cells was measured using a human IFN-β AlphaLISA kit (Perkin Elmer, Cat. No. AL265F). The basic protocol is as follows:
The cell viability and count was ascertained using a Beckman Coulter V-Cell XR cell counter. The cells suspension was centrifuged at 200×g for 5 min at RT. […] Subsequent liquid transfers were performed using either a Matrix electronic multichannel pipette or an Agilent Bravo Automated Liquid Handling Platform.
The assay was started by dispensing 40 μL of the previously prepared cell suspension into the wells of the plate containing compounds. After 5 h incubation at 37° C., 5% CO2 in a humidified atmosphere, the plate of cells and compounds was centrifuged at 200×g for 5 min at RT. […] To these supernatant-containing wells was added 10 μL of 5× Anti-Analyte Acceptor beads (50 μg/mL of AlphaLISA HiBlock Buffer) and incubated for 30 min at RT while shaking on an orbital plate shaker. To each well was added 10 μL of 5× Biotinylated Antibody Anti-analyte (5 nM in AlphaLISA HiBlock Buffer) and incubated on an orbital plate shaker for 60 min at RT or overnight at 4° C. To each well was added 25 μL of 2× SA-Donor beads (80 μg/mL in AlphaLISA HiBlock Buffer) and incubated for 30-45 min at RT in the dark while shaking on an orbital plate shaker. The plate was then read on a Perkin Elmer Envision (λex=680 nm, λem=[…]). The percent effect of the AlphaLISA signal at each compound concentration was calculated based on 30 uM cGAMP positive controls and 0.3% DMSO negative controls. The plot of percent effect versus the log of compound concentration was fit with a 4-parameter concentration response equation to calculate EC50 values.
Compounds of the disclosure were evaluated for IFN-β secretion in THP1 cell culture as described above.

Point of comparison: `Nc1nc2c(ncn2[C@@H]2O[C@@H]3COP(=O)(O)OC4C[C@H](n5cnc6c(N)ncnc65)O[C@@H]4COP(=O)(O)OC2C3F)c(=O)[nH]1` (stereo in doubt) [Example 22, 2-amino-9-[(5R,7R,8S,12aR,14R,15aS,16R)-14-(6-amino-9H-purin-9-yl)-16-fluoro-2,10-dihydroxy-2,10-dioxidooctahydro-12H-5,8-methanofuro[3,2-l][1,3,6,9,11,2,10]pentaoxadiphosphacyclotetradecin-7-yl]-1,9-dihydro-6H-purin-6-one], “% Effect at 30 μM relative to 2′3′-cGAMP” value 109%. Against it:
- Nc1nc2c(ncn2[C@@H]2O[C@@H]3COP(=O)(O)OC4[C@@H](COP(=O)(O)OC2C3O)O[C@@H](n2cnc3c(N)ncnc32)[C@H]4F)c(=O)[nH]1 (stereo in doubt) [Example 7, (5R,7R,8R,12aR,14R,15S,15aR,16R)-7-(2-amino-6-oxo-1,6-dihydro-9H-purin-9-yl)-14-(6-amino-9H-purin-9-yl)-15-fluoro-16-hydroxyoctahydro-12H-5,8-methanofuro[3,2-l][1,3,6,9,11,2,10] pentaoxadiphosphacyclotetradecine-2,10-diolate 2,10-dioxide] — higher, 112%
- Nc1nc2c(ncn2[C@@H]2O[C@@H]3COP(=O)(O)OC4C(F)[C@H](n5cnc6c(N)ncnc65)O[C@@H]4COP(=O)(O)OC2C3F)c(=O)[nH]1 (stereo in doubt) [Example 23, 2-amino-9-[(5R,7R,8S,12aR,14R,15R,15aR,16R)-14-(6-amino-9H-purin-9-yl)-15,16-difluoro-2,10-dihydroxy-2,10-dioxidooctahydro-12H-5,8-methanofuro[3,2-l][1,3,6,9,11,2,10]pentaoxadiphosphacyclotetradecin-7-yl]-1,9-dihydro-6H-purin-6-one] — higher, 125%
- Nc1nc2c(ncn2[C@@H]2O[C@@H]3COP(=O)(O)OC4[C@@H](COP(=O)(O)O[C@H]2C3F)O[C@@H](n2cnc3c(N)ncnc32)[C@H]4F)c(=O)[nH]1 (stereo partly drawn) [Example 26, 2-amino-9-[(2S,5R,7R,8S,10S,12aR,14R,15S,15aR,16R)-14-(6-amino-9H-purin-9-yl)-15,16-difluoro-2,10-dihydroxy-2,10-dioxidooctahydro-12H-5,8-methanofuro[3,2-l][1,3,6,9,11,2,10]pentaoxadiphosphacyclotetradecin-7-yl]-1,9-dihydro-6H-purin-6-one] — higher, 150%
- Nc1nc2c(ncn2[C@@H]2O[C@@H]3COP(=O)(O)O[C@H]4C[C@H](n5cnc6c(N)ncnc65)O[C@@H]4COP(=O)(O)O[C@@H]2C3)c(=O)[nH]1 [Example 27, 2-amino-9-[(5S,7R,8R,12aR,14R,15aS)-14-(6-amino-9H-purin-9-yl)-2,10-dihydroxy-2,10-dioxidooctahydro-12H-5,8-methanofuro[3,2-l][1,3,6,9,11,2,10]pentaoxadiphosphacyclotetradecin-7-yl]-1,9-dihydro-6H-purin-6-one] — higher, 164%
- Nc1nc2c(ncn2[C@@H]2O[C@@H]3COP(=O)(O)O[C@H]4[C@@H](O)[C@H](n5cnc6c(N)ncnc65)O[C@@H]4COP(=O)(O)O[C@@H]2[C@H]3O)c(=O)[nH]1 [Example 39, 2-amino-9-[(5R,7R,8R,12aR,14R,15R,15aS,16S)-14-(6-amino-9H-purin-9-yl)-2,10,15,16-tetrahydroxy-2,10-dioxidooctahydro-12H-5,8-methanofuro[3,2-l][1,3,6,9,11,2,10]pentaoxadiphosphacyclotetradecin-7-yl]-1,9-dihydro-6H-purin-6-one] — lower, 74%
- Nc1nc2c(ncn2[C@@H]2O[C@@H]3COP(=O)(O)O[C@H]4[C@H](O)[C@H](n5cnc6c(N)ncnc65)O[C@@H]4COP(=O)(O)O[C@@H]2[C@@H]3O)c(=O)[nH]1 [Example 48, 2-amino-9-[(5R,7R,8R,12aR,14R,15S,15aS,16R)-14-(6-amino-9H-purin-9-yl)-2,10,15,16-tetrahydroxy-2,10-dioxidooctahydro-12H-5,8-methanofuro[3,2-l][1,3,6,9,11,2,10]pentaoxadiphosphacyclotetradecin-7-yl]-1,9-dihydro-6H-purin-6-one] — lower, 104%
- Nc1nc2c(ncn2[C@@H]2O[C@@H]3COP(=O)(O)O[C@H]4[C@@H](O)[C@H](n5cnc6c(N)ncnc65)O[C@@H]4COP(=O)(O)O[C@@H]2[C@H]3F)c(=O)[nH]1 [Example 52, 2-amino-9-[(5R,7R,8S,12aR,14R,15R,15aS,16S)-14-(6-amino-9H-purin-9-yl)-16-fluoro-2,10,15-trihydroxy-2,10-dioxidooctahydro-12H-5,8-methanofuro[3,2-l][1,3,6,9,11,2,10]pentaoxadiphosphacyclotetradecin-7-yl]-1,9-dihydro-6H-purin-6-one] — higher, 143%

Same assay, conditions: IFN-β secretion in THP1 cell culture, 5 h; compound at 30 μM; percent activation relative to 2′3′-cGAMP

Point of comparison: `Nc1nc2c(ncn2[C@@H]2O[C@@H]3COP(=O)(S)O[C@H]4[C@@H](O)[C@H](n5ccc6c(N)ncnc65)O[C@@H]4COP(=O)(S)O[C@@H]2C3)c(=O)[nH]1` (stereo partly drawn) [Example 79, 2-amino-9-[(5S,7R,8R,12aR,14R,15R,15aS)-14-(4-amino-7H-pyrrolo[2,3-d]pyrimidin-7-yl)-15-hydroxy-2,10-dioxido-2,10-disulfanyloctahydro-12H-5,8-methanofuro[3,2-l][1,3,6,9,11,2,10]pentaoxadiphosphacyclotetradecin-7-yl]-1,9-dihydro-6H-purin-6-one], “% Effect at 30 μM relative to 2′3′-cGAMP” value 145%. Against it:
- Nc1nc2c(ncn2[C@@H]2O[C@@H]3COP(=O)(S)O[C@H]4[C@@H](O)[C@H](n5ccc6c(N)ncnc65)O[C@@H]4COP(=O)(S)O[C@@H]2C3)c(=O)[nH]1 (stereo partly drawn) [Example 78, 2-amino-9-[(5S,7R,8R,12aR,14R,15R,15aS)-14-(4-amino-7H-pyrrolo[2,3-d]pyrimidin-7-yl)-15-hydroxy-2,10-dioxido-2,10-disulfanyloctahydro-12H-5,8-methanofuro[3,2-l][1,3,6,9,11,2,10]pentaoxadiphosphacyclotetradecin-7-yl]-1,9-dihydro-6H-purin-6-one] — higher, 162%
- Nc1nc2c(ncn2[C@@H]2O[C@@H]3COP(=O)(S)O[C@H]4[C@@H](O)[C@H](n5ccc6c(N)ncnc65)O[C@@H]4COP(=O)(S)O[C@@H]2C3)c(=O)[nH]1 (stereo partly drawn) [Example 80, 2-amino-9-[(5S,7R,8R,12aR,14R,15R,15aS)-14-(4-amino-7H-pyrrolo[2,3-d]pyrimidin-7-yl)-15-hydroxy-2,10-dioxido-2,10-disulfanyloctahydro-12H-5,8-methanofuro[3,2-l][1,3,6,9,11,2,10]pentaoxadiphosphacyclotetradecin-7-yl]-1,9-dihydro-6H-purin-6-one] — higher, 234%
- Nc1nc2c(ncn2[C@@H]2O[C@@H]3COP(=O)(S)OC4[C@@H](COP(=O)(S)O[C@H]2C3)O[C@@H](n2nnc3c(N)ncnc32)[C@H]4F)c(=O)[nH]1 (stereo partly drawn) [Example 133, 2-amino-9-[(5S,7R,8R,12aR,14R,15S,15aR)-14-(7-amino-3H-[1,2,3]triazolo[4,5-d]pyrimidin-3-yl)-15-fluoro-2,10-dihydroxy-2,10-disulfidooctahydro-12H-5,8-methanofuro[3,2-l][1,3,6,9,11,2,10]pentaoxadiphosphacyclotetra-decin-7-yl]-1,9-dihydro-6H-purin-6-one] — lower, 117%
- Nc1nc2c(ncn2[C@@H]2O[C@@H]3COP(=O)(S)O[C@H]4[C@H](F)[C@H](n5cnc6c(N)ncnc65)O[C@@H]4COP(=O)(O)O[C@@H]2[C@@H]3F)c(=O)[nH]1 (stereo partly drawn) [Example 143, 2-amino-9-[(5R,7R,8S,12aR,14R,15S,15aR,16R)-14-(6-amino-9H-purin-9-yl)-15,16-difluoro-2,10-dihydroxy-10-oxido-2-sulfidooctahydro-12H-5,8-methanofuro[3,2-l][1,3,6,9,11,2,10]pentaoxadiphosphacyclotetra-decin-7-yl]-1,9-dihydro-6H-purin-6-one] — higher, 157%
- Nc1nc2c(ncn2[C@@H]2O[C@@H]3COP(O)(=S)O[C@H]4[C@@H](F)[C@H](n5cnc6c(N)ncnc65)O[C@@H]4COP(O)(=S)O[C@@H]2[C@@H]3F)c(=O)[nH]1 (stereo partly drawn) [Example 260, 2-amino-9-[(5R,7R,8S,12aR,14R,15R,15aR,16R)-14-(6-amino-9H-purin-9-yl)-15,16-difluoro-2,10-dihydroxy-2,10-disulfidooctahydro-12H-5,8-methanofuro[3,2-l][1,3,6,9,11,2,10]pentaoxadiphosphacyclotetradecin-7-yl]-1,9-dihydro-6H-purin-6-one] — lower, 113%

From patent US11453697B1, “Cyclic di-nucleotide compounds as sting agonists” (Merck Sharp & Dohme Corp., priority 2015, dated 2022)
